One block for each compound: values may come before it.
Experiments:
human MT1 receptors [1] = target: T1, human MT1 receptors (Homo sapiens, UniProt P48039); assay: Intrinsic activity at human MT1 receptors stably transfected in CHO cells; type: biochemical; conditions: MT1, melatonin = 1.00
T1 construct: expressed in transfected cells; host or cells: CHO (Chinese hamster ovary) cells, stably transfected

[2] = target: T2, human MT1 melatonin receptor (Homo sapiens, UniProt P48039); assay: Radioligand binding assay at human MT1 (MDS Pharma Services), 2-[125I]iodomelatonin; conditions: for inhibition at 50 pM: MT1, concentration 0.05 nM; for inhibition at 0.001 µM: MT1, concentration 1 nM; for inhibition at 1 µM: MT1, concentration 1 µM
T2 construct: expressed in transfected cells; host or cells: CHO (Chinese hamster ovary) cells, stably transfected

human MT2 receptors [3] = target: T3, human MT2 receptors (Homo sapiens, UniProt P49286); assay: Intrinsic activity at human MT2 receptors stably transfected in CHO cells; type: biochemical; conditions: MT2, melatonin = 1.00
T3 construct: expressed in transfected cells; host or cells: CHO (Chinese hamster ovary) cells, stably transfected
T3 sequence (P49286 1-362): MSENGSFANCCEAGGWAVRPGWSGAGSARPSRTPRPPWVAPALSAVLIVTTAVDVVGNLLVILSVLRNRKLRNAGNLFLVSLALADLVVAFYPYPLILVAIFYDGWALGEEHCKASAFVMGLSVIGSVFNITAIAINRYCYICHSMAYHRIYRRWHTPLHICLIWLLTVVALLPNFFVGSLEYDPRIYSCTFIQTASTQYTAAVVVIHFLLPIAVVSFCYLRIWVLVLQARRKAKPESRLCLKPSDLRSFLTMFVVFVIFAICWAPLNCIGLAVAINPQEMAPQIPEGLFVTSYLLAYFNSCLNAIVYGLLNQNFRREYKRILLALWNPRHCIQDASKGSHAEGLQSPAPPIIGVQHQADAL

human MT2 receptors [4] = target: T3, human MT2 receptors; assay: Binding affinity at human MT2 receptors stably transfected in CHO cells, 2-[125I]iodomelatonin; conditions: read-out: MT2 pKi (Mean ± SD) (converted)
human MT1 receptors [5] = target: T1, human MT1 receptors; assay: Binding affinity at human MT1 receptors stably transfected in CHO cells, 2-[125I]iodomelatonin; conditions: read-out: MT1 pKi (Mean ± SD) (converted)
[6] = target: T4, human MT2 melatonin receptor (Homo sapiens, UniProt P49286); assay: Radioligand binding assay at human MT2 (MDS Pharma Services), 2-[125I]iodomelatonin; conditions: for IC50 / Ki / nH (Hill coefficient): MT2; for inhibition at 50 pM: MT2, concentration 0.05 nM; for inhibition at 0.001 µM: MT2, concentration 1 nM; for inhibition at 1 µM: MT2, concentration 1 µM
T4 construct: expressed in transfected cells; host or cells: CHO (Chinese hamster ovary) cells, stably transfected
T4 sequence (P49286 1-362): T3 sequence (P49286 1-362)
Description: The newly synthesized indole derivatives were evaluated for their binding affinity and intrinsic activity at human MT1 and MT2 receptors stably transfected in Chinese hamster ovary (CHO) cells using 2-[^125I]iodomelatonin as a radioligand, and the results are shown in Table 5 and Table 6.

[7] = Oxidation of 2,3-dihydroindoles in solution (NMR tube, storage in DMSO solution); type: physicochemical
Text: Despite stability in the solid phase, the obtained 2,3-dihydroindoles are sensitive to oxidation in solution. Thus, the oxidation in the NMR tube occurred both in spiro and 3H-containing indolines, but led to different types of products. […] The compounds 8i,l,g were also partially converted to aromatic indoles 9i,l,g during purification by column chromatography.
[formula] Scheme 10 Oxidative conversion of 2,3-dihydroindoles during storage in DMSO solution.

T1 sequence (P48039 whole entry): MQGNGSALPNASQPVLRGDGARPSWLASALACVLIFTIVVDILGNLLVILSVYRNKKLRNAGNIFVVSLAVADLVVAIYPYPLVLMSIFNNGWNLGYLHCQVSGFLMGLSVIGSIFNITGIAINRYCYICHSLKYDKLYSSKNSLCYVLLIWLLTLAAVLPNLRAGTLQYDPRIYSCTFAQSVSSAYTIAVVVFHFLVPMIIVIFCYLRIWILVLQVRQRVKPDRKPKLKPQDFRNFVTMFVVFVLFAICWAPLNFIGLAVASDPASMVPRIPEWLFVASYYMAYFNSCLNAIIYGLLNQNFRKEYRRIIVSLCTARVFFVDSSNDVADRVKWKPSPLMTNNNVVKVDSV
T2 sequence (P48039 whole entry): as above

MT2 Intrinsic Activity (human MT2 receptors [3]): 0.83 ± 0.05
MT1 Intrinsic Activity (human MT1 receptors [1]): 0.61 ± 0.15
Ki (human MT2 receptors [4]): 166 nM
Ki (human MT1 receptors [5]): 251 nM
Structure (SMILES): CC(=O)NCCC1CN(C)c2c1ccc(C)c2C (stereo not drawn) [8l, N-[2-(1,6,7-Trimethyl −2,3-dihydro-1H-indol-3-yl)ethyl]acetamide]

MT2 Intrinsic Activity (human MT2 receptors [3]): 0.45 ± 0.04
MT1 Intrinsic Activity (human MT1 receptors [1]): 0.33 ± 0.04
Ki (human MT2 receptors [4]): 72.4 nM
Ki (human MT1 receptors [5]): 1740 nM
Structure (SMILES): CC(=O)NCCC1(C)CN(Cc2ccccc2)c2ccccc21 (stereo not drawn) [8b, N-[2-(1-Benzyl-3-methyl-2,3-dihydro-1H-indol-3-yl)ethyl]acetamide]

MT2 Intrinsic Activity (human MT2 receptors [3]): 0.85 ± 0.08
MT1 Intrinsic Activity (human MT1 receptors [1]): 1.04 ± 0.14
Ki (human MT2 receptors [4]): 2.29 nM
Ki (human MT1 receptors [5]): 5.25 nM
Structure (SMILES): COc1ccc2c(c1)C(CCNC(C)=O)CN2Cc1ccccc1 (stereo not drawn) [8h, N-[2-(1-Benzyl-5-methoxy-2,3-dihydro-1H-indol-3-yl)ethyl]acetamide]

MT2 Intrinsic Activity (human MT2 receptors [3]): 0.96 ± 0.07
MT1 Intrinsic Activity (human MT1 receptors [1]): 0.94 ± 0.10
Ki (human MT2 receptors [4]): 195 nM
Ki (human MT1 receptors [5]): 58.9 nM
Structure (SMILES): COc1ccc2c(c1)C(C)(CCNC(C)=O)CN2C (stereo not drawn) [8e, N-[2-(1,3-Dimethyl-5-methoxy-2,3-dihydro-1H-indol-3-yl)ethyl]acetamide]

MT2 Intrinsic Activity (human MT2 receptors [3]): 0.61 ± 0.03
MT1 Intrinsic Activity (human MT1 receptors [1]): 0.63 ± 0.14
Ki (human MT2 receptors [4]): 46.8 nM
Ki (human MT1 receptors [5]): 112 nM
Structure (SMILES): COc1ccc2c(c1)C(C)(CCNC(C)=O)CN2Cc1ccccc1 (stereo not drawn) [8f, N-[2-(1-Benzyl-3-methyl-5-methoxy-2,3-dihydro-1H-indol-3-yl)ethyl]acetamide]

MT2 Intrinsic Activity (human MT2 receptors [3]): 0.74 ± 0.07
MT1 Intrinsic Activity (human MT1 receptors [1]): 0.47 ± 0.10
Ki (human MT2 receptors [4]): 427 nM
Ki (human MT1 receptors [5]): 776 nM
Structure (SMILES): CC(=O)NCCC1(C)CN(C)c2ccccc21 (stereo not drawn) [8a, N-[2-(1,3-Dimethyl-2,3-dihydro-1H-indol-3-yl)ethyl]acetamide]

Stability to oxidation in solution [7]: oxidized to 2-oxindole
Structure (SMILES): CC(=O)NCC1CC12CN(C)c1ccccc12 (stereo not drawn) [10a, N-{1′-Methyl-1′,2′-dihydrospiro[cyclopropan-1,3′-indol]-3-ylmethyl}acetamide]

Second part, the compound before the results:

Structure (SMILES): COc1ccc2[nH]cc(CCNC(C)=O)c2c1 [Melatonin, 3-(2-(acetylamino)ethyl)-5-methoxyindole, reference compound]
MT1 Intrinsic Activity (human MT1 receptors [1]): 1.00 ± 0.03
nH (Hill coefficient) ([2]; MT1): 0.774

Structure (SMILES): COc1ccc2[nH]c(Cl)c(CCNC(C)=O)c2c1 [7d, 2-chloromelatonin]
IC50 [6]: 0.338 nM
Ki [6]: 0.176 nM
nH (Hill coefficient) [6]: 1.01
inhibition at 50 pM [6]: 13%
inhibition at 0.001 µM [6]: 75%
inhibition at 1 µM [6]: 98%
IC50 ([2]; MT1): 0.138 nM
Ki ([2]; MT1): 0.0716 nM
nH (Hill coefficient) ([2]; MT1): 0.925
inhibition at 50 pM [2]: 28%
inhibition at 0.001 µM [2]: 86%
inhibition at 1 µM [2]: 100%
MT1 receptor binding activity compared with melatonin ([2]; MT1, in words): more active than melatonin

Structure (SMILES): CCC(=O)NC1Cc2ccccc2C(c2ccccc2)C1 (stereo not drawn) [4-P-PDOT, reference compound]
IC50 [6]: 0.497 nM
Ki [6]: 0.258 nM
nH (Hill coefficient) [6]: 0.840

Structure (SMILES): CC(=O)NCCC1CN(Cc2ccccc2)c2ccccc21 (stereo not drawn) [8m, N-[2-(1-Benzyl-2,3-dihydro-1H-indol-3-yl)ethyl]acetamide]
Stability to oxidation in solution [7]: aromatization of the indole ring occurred

Structure (SMILES): COc1ccc2c(c1)C(CCNC(C)=O)C(=O)N2 (stereo not drawn) [7a, N-[2-(5-methoxy-2-oxo-2,3-dihydro-1H-indol-3-yl)ethyl]acetamide]
IC50 [6]: 268 nM
Ki [6]: 139 nM
nH (Hill coefficient) [6]: 0.676
inhibition at 50 pM [6]: 4%
inhibition at 0.001 µM [6]: 3%
inhibition at 1 µM [6]: 71%
IC50 ([2]; MT1): > 1000 nM
inhibition at 50 pM [2]: 4%
inhibition at 0.001 µM [2]: 3%
inhibition at 1 µM [2]: 46%

From PMC9655341 (Molecules, 2022)
